Results on one compound are retold here after US6579718B1, “Carbazolylvinyl dye protein stains” (Molecular Probes, Inc., priority 2000, dated 2003).

Data set [1] has as its system amino acid homo- and hetero-polymers. The data set is described as follows: Dye staining of amino acid homo- and hetero-polymers copolymerized into polyacrylamide gel discs. An excerpt: The specificity of protein detection of the present method can be compared to that of silver, CBB, SYPRO Orange dye and SYPRO Red dye staining for a variety of synthetic poly(amino acids) copolymerized into a polyacrylamide gel matrix. To do this, homopolymers of L-arginine, asparagine, histidine, lysine, aspartate, glutamate, alanine, glycine, isoleucine, leucine, methionine, serine, threonine, tryptophan, tyrosine and proline are copolymerized into 15% T, 2.6% C polyacrylamide gels at a concentration of […]. Except when indicated, 0.1% sodium dodecyl sulfate is included in the polyacrylamide solution as well. The amino acid heteropolymers, poly(glutamate, alanine, tyrosine), poly(glutamate, tyrosine), poly(lysine, tyrosine), poly(glutamate, lysine, tyrosine), and poly(arginine, tyrosine) are copolymerized into polyacrylamide gels in an identical manner as the homopolymers. Blank gels containing no polymer are prepared for reference. The co-polymerized gels are cut into discs using the large end of a 1000 microliter pipet tip (Sorenson Bioscience, Inc., West Salt. Lake City, Utah) and stained in Falcon 48 well flat bottom tissue culture plates (Becton-Dickinson, Franklin Lakes, N.J.) on an orbital shaker operating at 50 RPM. Gel discs are quantified on a Roche Lumi-Imager system (Indianapolis, Ind.) and classified into three groups based upon staining intensity (strong, moderate, or weak staining).

The nature of data set [2]: Fluorescence excitation/emission spectra in 2% SDS at acidic and neutral pH (Example 20, FIG. 1). The conditions noted are these: 2% SDS in 7% acetic acid or phosphate-buffered saline. Format: physicochemical. The procedure:
FIG. 1: Fluorescence excitation/emission spectra of Compound 9. Spectra were generated in 7% acetic acid, 2% SDS. […] Identical spectra were obtained in phosphate-buffered saline, 2% sodium dodecyl sulfate (SDS).
Excitation/emission profiles of Compound 9 are obtained by incubating a […] solution of the dye in 2% SDS that has been prepared in either 7% acetic acid or 50 mM Na2HPO4, 150 mM NaCl, pH 7.0 for 30 minutes. Without the SDS, the dye gives very low fluorescence emission in aqueous solutions or buffers. Measurements are made in a quartz cuvette using a Hitachi F4500 fluorescence Spectrometer (Hitachi, Tokyo, Japan) or similar instrument. Spectra generated in 7% acetic acid, 2% SDS can be essentially superimposed on spectra obtained in phosphate-buffered saline, 2% SDS. Excitation maxima are observed at 300 and 490 nm with emission set at 640 nm. An emission maximum is observed at 640 nm with excitation set at 440 nm. This excitation profile is ideally suited for visualization of the stain using a 302-nm UV-B transilluminator, 473-nm second harmonic generation (SHG) laser or 488-nm argon-ion laser. The dye can also be visualized on a blue-light box (DARK READER™, Clare Research, Boulder, Colo.). The emission maximum of the Compound 9 is observed at 640 nm, and is thus spectrally well matched to emission band-pass filters optimized for the Texas Red dye.

In data set [3] the test system is tubulin. The data set is described as follows: Electroblotting of tubulin from stained gels (Example 24). To be noted: phosphate-buffered saline staining formulation. The procedure:
Tubulin was selected as a model protein since it is relatively difficult to elute from gels by simple passive diffusion (Example 23). Two-fold serial dilutions of […] ranging from 1000 to 1 ng are applied and separated by sodium dodecyl sulfate (SDS)-polyacrylamide gel electrophoresis according to standard procedures. After electrophoresis, gels are stained with either Compound 9 or SYPRO Orange dye as described in Example 23, photographed and then incubated in a transfer buffer consisting of 10 mM Tris, 96 mM glycine, 10% methanol, 0.1% sodium dodecyl sulfate, pH 8.3. Proteins are electroblotted to poly(vinylidene difluoride) (PVDF) membranes using the same transfer buffer for 120 minutes using a semi-dry blotter by standard methods. Immunoblotting is performed by standard methods and colorimetric procedures are employed to detect the tubulin using 5-bromo-4-chloroindolyl phosphate/nitroblue tetrazolium (BCIP/NBT). […] Tubulin can subsequently be visualized by using alkaline phosphatase-conjugated secondary antibody with similar detection sensitivity as electroblots of unstained, control gels. The transfer of tubulin from gels stained with SYPRO Orange dye in 7% acetic acid is not possible despite a 20-minute incubation in transfer buffer containing 0.1% sodium dodecyl sulfate prior to blotting.

Data set [4] concerns proteins. The data set is described as follows: Dye staining and dye stability in 12.5% trichloroacetic acid. Here is the method: To make a staining mixture to combine with the sample mixture, including to test new dyes for their ability to stain proteins in a variety of situations, the selected dye is typically first dissolved in an organic solvent, such as DMSO, DMF or methanol, usually to a dye concentration of 1-10 mM. This concentrated stock solution is then generally diluted with an aqueous solution according to the assay being performed. Staining solutions can be stored and used for months without signal loss. The selected dye effectively stains proteins in a wide range of buffers if 100 mM NaCl is included in the staining solution. Acceptable buffers include, among others, 50-100 mM formate buffer, pH 4.0, sodium citrate, pH 4.5, sodium acetate, pH 5.0, MES, pH 6.0, imidazole, pH 7.0, HEPES, pH 7.5, Tris acetate, pH 8.0, Tris-HCl, pH 8.5, Tris borate, pH 9.0 and sodium bicarbonate, pH 10. Dye staining can also be performed in 12.5% trichloroacetic acid. […] A 20-minute wash in water removes the background and sensitive staining is obtained. […] Acetic acid may be included in the staining mixture, typically to a concentration of 5%-7.5% acetic acid, e.g. to improve labeling of gels relative to that obtained for dyes in water. For staining polypeptides in solution, the dye is diluted into an aqueous solution—preferably a buffered solution—that optionally contains a detergent. […]

For data set [5], the system named is proteins. The data set is described as follows: Prestaining of proteins prior to electrophoresis (Example 31). To be noted: prestaining before electrophoresis. The procedure: The proteins of interest are diluted to appropriate concentrations in electrophoresis sample buffer. The samples are then heated to 90-95° C. for 4-5 minutes and allowed to cool to room temperature. Compound 9 is added to the protein solutions to a final concentration of 10 mM, and the samples are loaded onto a 12% polyacrylamide gel, or other appropriate percentage gel. The gel is electrophoresed under standard conditions and visualized directly using ultraviolet illumination. The sensitivity of this method is somewhat less than the sensitivity possible using the methods in Example 22 (post staining the gel after electrophoresis) or in Example 30 (dye in running buffer).

Setting [6] is: gel discs with 0.1% SDS, no asterisk = moderate.

Where “and” joins values, the source holds several entries; their conditions need not be identical. Equal entries are not always repeated.

In the case of `CCn1c2ccccc2c2cc(/C=C/c3cc[n+](CCCCS(=O)(=O)[O-])c4ccccc34)ccc21` [Compound 9], in data set [1] (setting [6]), the “Staining intensity, Arg homopolymer” value is “Arg*”; the “Staining intensity, Arg:Tyr heteropolymer” value is listed as “Arg:Tyr*”; the “Staining intensity, Glu:Ala:Tyr heteropolymer” value is reported as “Glu:Ala:Tyr*”; the “Staining intensity, Glu:Lys:Tyr heteropolymer” value was “Glu:Lys:Tyr*”. Also, in data set [1] (setting [6]), the “Staining intensity, Glu:Tyr heteropolymer” value was “Glu:Tyr*”; the “Staining intensity, Gly homopolymer” value is on record as “Gly”; the “Staining intensity, His homopolymer” value was “His*”; the “Staining intensity, Ile homopolymer” value is recorded as “Ile”. In data set [1] (setting [6]), the “Staining intensity, Lys homopolymer” value was “Lys*”; the “Staining intensity, Lys:Tyr heteropolymer” value was “Lys:Tyr*”; the “Staining intensity, Tyr homopolymer” value was “Tyr*”. Further, the “Change of amino acid polymer staining in phosphate-buffered saline” value in data set [1] (phosphate-buffered saline versus 7% acetic acid) is “not substantially reduced”. For the same compound, the Excitation maxima in data set [2] (emission set at 640 nm) is 300 nm and 490 nm. Further, in data set [2] (excitation set at 440 nm), the Emission maximum amounted to 640 nm. Moreover, in data set [3], the “Transfer of tubulin from stained gel by electroblotting” value is “readily transferred”. Besides, the “Staining of proteins in 12.5% trichloroacetic acid” value in data set [4] was “stains proteins brightly, but also with bright background fluorescence”. In addition, the “Stability of dye on overnight exposure to 12.5% trichloroacetic acid” value in data set [4] (overnight) is given as “destroys much of the dye”. The “Sensitivity compared with methods of Example 22 or Example 30” value in data set [5] is on record as “somewhat less”.
